Measured values as given in US20100247525A1 (priority 2006, published 2010).
“And” between values parts separate entries of the source, which are not always exact repeats. Equal entries are not always repeated.

Legend:
[1] = target: T1, human TNF-α (Homo sapiens, UniProt P01375); conditions: in vivo
T1 construct: purchased Chemicon, Inc

[2] = system: NFkappaB translocation; conditions: mouse, in vivo
[3] = system: LeTx pre-sensitized mice; conditions: mouse, in vivo

T1 sequence (P01375 77-233 limits assumed): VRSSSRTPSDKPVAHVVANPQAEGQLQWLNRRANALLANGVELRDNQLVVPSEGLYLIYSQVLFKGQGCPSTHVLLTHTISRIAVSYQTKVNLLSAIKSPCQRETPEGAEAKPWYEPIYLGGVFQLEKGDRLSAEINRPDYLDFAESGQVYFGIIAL

Etanercept
prevention of lethality [1]: prevents lethality | protection when the death initiator is human TNF-α [1]: protects

Cc1ccc(=O)n(-c2ccccc2)c1 [Pirfenidone]
survival enhancement [2]: 40% and 20%

PAM3-CSK-4
initiation of RDP [3]: initiates RDP | initiation of RDP (death initiator) [3]: death initiators
